Experimental data: patent US12060387B2, “Polypeptide-based shuttle agents for improving the transduction efficiency of polypeptide cargos to the cytosol of target eukaryotic cells, uses thereof, methods and kits relating to same” (priority 2015, dated 2024)
Read-outs that look alike come from different tables or passages of the source. Where no end group is shown, it is not given here.

Tests used:
[1] = Cell toxicity / % cell viability by flow cytometry (cells in total events v. untreated); type: cell-based, Human; details: human, HeLa cells, HeLa, GFP-NLS 5 μM; for viability at 10 s, 35 µM: shuttle 35 μM; for viability at 10 s, 50 µM: shuttle 50 μM
[2] = system: HeLa cells; experiment: as above; type: cell-based, Human; details: HeLa, Protocol B, GFP-NLS 5 μM, 10 seconds
[3] = Cell viability (%) by flow cytometry; type: cell-based, Chinese hamster; details: CHO cells, Protocol B, shuttle 35 μM, GFP-NLS 5 μM, 10 seconds, read-out: Cell viability (%) (±St. Dev.; n = 3)
Experimental: (§1) The ability of the shuttle agent His-CM18-PTD4 to deliver GFP-NLS to the nuclei of different adherent and suspension cells using Protocols B (adherent cells) or C (suspension cells) as described in Example 9.1 was examined. The cell lines tested included: HeLa, Balb3T3, HEK 293T, CHO, NIH3T3, Myoblasts, Jurkat, THP-1, CA46, and HT2 cells, which were cultured as described in Example 1. GFP-NLS (5 μM; see Example 5.1) was co-incubated with 35 μM of His-CM18-PTD4 and exposed to adherent cells for 10 seconds (Protocol B), or was co-incubated with 5 μM of His-CM18-PTD4 and exposed to suspension cells for 15 seconds (Protocol C). […] “Pos cells (%)” is the mean percentages of all cells that emanate a GFP signal.

[4] = Cell toxicity / % cell viability by flow cytometry (cells in total events v. untreated); type: cell-based, human; details: human, THP-1 cells, Cell viability (%) (±St. Dev.; n = 3), THP-1; for viability at 15 s, 5 µM: shuttle 5 μM, 15 seconds
Text: (§2) The fluorescence of GFP was quantified using flow cytometry (Accuri C6, Becton, Dickinson and Company (BD)). Untreated cells were used to establish a baseline in order to quantify the increased fluorescence due to the internalization of the fluorescent protein in treated cells. The percentage of cells with a fluorescence signal above the maximum fluorescence of untreated cells, “mean %” or “Pos cells (%)”, is used to identify positive fluorescent cells. “Relative fluorescence intensity (FL1-A)” corresponds to the mean of all fluorescence intensities from each cell with a fluorescent signal after fluorescent protein delivery with the shuttle agent. Also, the events scanned by flow cytometry corresponding to cells (size and granularity) were analyzed. The cellular toxicity (% cell viability) was monitored comparing the percentage of cells in the total events scanned of treated cells comparatively to untreated cells.

[5] = system: THP-1 cells; experiment: as above; type: cell-based, human; details: THP-1, daily 150 min exposure with serum, shuttle 0.8 μM, GFP-NLS 1 μM
Text: as §2

[6] = Cell viability (%) by flow cytometry; type: cell-based; details: GFP-NLS 5 μM, read-out: Cell viability (%) (±St. Dev.; n = 3); for viability at 15 s, 5 µM: Protocol C, shuttle 5 μM, 15 seconds; for viability at 10 s, 35 µM: Protocol B, shuttle 35 μM, 10 seconds
Experimental: as §1

[7] = Cell viability (%) (±St. Dev.; n = 3), FIG. 22B, Protocol B, 10 seconds, read-out: Cell viability (%) (±St. Dev.; n = 3), FIG. 22B

Question: With “HHHHHHKWKLFKKIGAVLKVLTTGYARAAARQARA [His-CM18-PTD4]” as the sequence, how does the viability at 1 h, 10 µM ([1]; Cell viability (%) (± St. Dev.; n = 3), Protocol A, shuttle 10 μM, 1 hour) read?
Answer: 96.4 ± 2.7%

Question: What about the viability at 10 s, 35 µM ([1]; Cell viability (%) (± St. Dev.; n = 3), Protocol B, 10 seconds, read-out: Cell viability (%) (± St. Dev.; n = 3)) of the same sequence?
Answer: 94.6 ± 0.4%

Question: And the viability at 10 s, 10 µM ([1]; Cell viability (%) (±St. Dev.; n = 3), FIG. 22B, Protocol B, shuttle 10 μM, 10 seconds)?
Answer: 96.3 ± 2.3%

Question: And the viability at 10 s, 25 µM ([1]; Cell viability (%) (±St. Dev.; n = 3), FIG. 22B, Protocol B, shuttle 25 μM, 10 seconds)?
Answer: 95.3 ± 3.7%

Question: And the viability at 10 s, 35 µM [1, 7]?
Answer: 79.6 ± 5.9%

Question: And the viability at 10 s, 50 µM [1, 7]?
Answer: 69.2 ± 2.7%

Question: And the viability at 10 s, 50 µM ([1]; Cell viability (%) (±St. Dev.; n = 3), FIG. 29A, Protocol B, 10 seconds, read-out: Cell viability (%) (±St. Dev.; n = 3), FIG. 29A)?
Answer: 92 ± 3.6%

Question: What about the viability at 1 min, 10 µM ([1]; Cell viability (%) (±St. Dev.; n = 3), FIG. 29B, Protocol B, shuttle 10 μM, incubation 1 min., read-out: Cell viability (%) (±St. Dev.; n = 3), FIG. 29B) of the same sequence?
Answer: 97.6 ± 2.7%

Question: And the viability at 2 min, 10 µM ([1]; Cell viability (%) (±St. Dev.; n = 3), FIG. 29B, Protocol B, shuttle 10 μM, incubation 2 min., read-out: Cell viability (%) (±St. Dev.; n = 3), FIG. 29B)?
Answer: 80.9 ± 3.2%

Question: What about the viability at 5 min, 10 µM ([1]; Cell viability (%) (±St. Dev.; n = 3), FIG. 29B, Protocol B, shuttle 10 μM, incubation 5 min., read-out: Cell viability (%) (±St. Dev.; n = 3), FIG. 29B) of the same sequence?
Answer: 66.2 ± 4.4%

Question: And the viability at 1 min, 20 µM ([1]; Cell viability (%) (±St. Dev.; n = 3), FIG. 29I, Protocol B, shuttle 20 μM, 1 minute, read-out: Cell viability (%) (±St. Dev.; n = 3), FIG. 29I)?
Answer: 81.6 ± 4.5%

Question: What about the “Cell viability (%) (±St. Dev.; n = 3)” value ([2]; shuttle 35 μM) of the same sequence?
Answer: 94.6 ± 0.4%

Question: What about the “Cell viability (%) (±St. Dev.; n = 3), FIG. 29E” value ([2]; shuttle 50 μM) of the same sequence?
Answer: 92 ± 3.6%

Question: What about the viability at 10 s, 35 µM [3] of the same sequence?
Answer: 92.8 ± 0.1%

Question: What about the viability at 1 h, 1 µM ([4]; FIG. 31, Protocol A, shuttle 1 μM, GFP-NLS 5 μM, 1 hour) of the same sequence?
Answer: 96.9 ± 3.6%

Question: What about the viability at 0.5 µM ([4]; FIG. 31, Protocol C, shuttle 0.5 μM, GFP-NLS 5 μM) of the same sequence?
Answer: 82.1 ± 2.7%

Question: And the viability at 15 s, 5 µM ([4]; FIG. 31, Protocol C, GFP-NLS 5 μM, read-out: Cell viability (%) (±St. Dev.; n = 3), FIG. 31)?
Answer: 64 ± 4.1%

Question: And the viability at 15 s, 1 µM ([4]; Protocol C, shuttle 1 μM, GFP-NLS 5 μM, incubation time 15 sec, read-out: Cell viability (%) (±St. Dev.; n = 3))?
Answer: 90 ± 3%

Question: What about the viability at 0.5 min, 1 µM ([4]; Protocol C, shuttle 1 μM, GFP-NLS 5 μM, incubation time 30 sec, read-out: Cell viability (%) (±St. Dev.; n = 3)) of the same sequence?
Answer: 89 ± 1.1%

Question: What about the viability at 1 min, 1 µM ([4]; Protocol C, shuttle 1 μM, GFP-NLS 5 μM, incubation time 60 sec, read-out: Cell viability (%) (±St. Dev.; n = 3)) of the same sequence?
Answer: 85.3 ± 3.6%

Question: And the viability at 2 min, 1 µM ([4]; Protocol C, shuttle 1 μM, GFP-NLS 5 μM, incubation time 120 sec, read-out: Cell viability (%) (±St. Dev.; n = 3))?
Answer: 74.3 ± 3.2%

Question: And the viability at 15 s, 5 µM ([4]; Protocol C, GFP-NLS 5 μM, read-out: Cell viability (%) (±St. Dev.; n = 3))?
Answer: 64.1 ± 4.5%

Question: And the viability at 24 h, 0.5 µM ([4]; daily 150 min exposure with serum, shuttle 0.5 μM, GFP-NLS 5 μM, exposure 1 day)?
Answer: 98.2 ± 2.4%

Question: And the viability at 72 h, 0.5 µM ([4]; daily 150 min exposure with serum, shuttle 0.5 μM, GFP-NLS 5 μM, exposure 3 days)?
Answer: 84.3 ± 3.8%

Question: What about the viability at 24 h, 0.8 µM ([4]; daily 150 min exposure with serum, shuttle 0.8 μM, GFP-NLS 2.5 μM, exposure 1 day, read-out: Cell viability (%) (±St. Dev.; n = 3)) of the same sequence?
Answer: 92.3 ± 1.9%

Question: And the viability at 72 h, 0.8 µM ([4]; daily 150 min exposure with serum, shuttle 0.8 μM, GFP-NLS 2.5 μM, exposure 3 days, read-out: Cell viability (%) (±St. Dev.; n = 3))?
Answer: 68.5 ± 2.2%

Question: And the “Cell viability (%) (±St. Dev.; n = 3)” value ([5]; exposure 1 day)?
Answer: 98.4 ± 6.4%

Question: What about the “Cell viability (%) (±St. Dev.; n = 3)” value ([5]; exposure 3 days) of the same sequence?
Answer: 80.6 ± 4.6%

Question: And the viability at 15 s, 5 µM ([6]; human, CA46 cells)?
Answer: 71.6 ± 1%

Question: What about the viability at 10 s, 35 µM ([6]; human, HEK 293T cells) of the same sequence?
Answer: 95.3 ± 1.2%

Question: What about the viability at 15 s, 5 µM ([6]; human, Jurkat cells) of the same sequence?
Answer: 73.6 ± 0.7%

Question: What about the viability at 10 s, 35 µM ([6]; human, Myoblasts) of the same sequence?
Answer: 23.5 ± 1.1%

Question: What about the viability at 10 s, 35 µM ([6]; mouse, Balb3T3 cells) of the same sequence?
Answer: 98.4 ± 0.6%

Question: What about the viability at 15 s, 5 µM ([6]; mouse, HT2 cells) of the same sequence?
Answer: 90.6 ± 1.5%

Question: And the viability at 10 s, 35 µM ([6]; mouse, NIH3T3 cells)?
Answer: 3.3 ± 5.4%
